Experimental data taken from PMC7738869, “A novel STAT3 inhibitor W2014-S regresses human non-small cell lung cancer xenografts and sensitizes EGFR-TKI acquired resistance” (Theranostics, 2021).

Legend:
PC-9/GR cells [1] = experiment: Cell viability assay (CCK-8), PC-9/GR; format: cell-based, human; conditions: 72 h
Procedure: Cell proliferation was measured using the Cell Counting Kit-8 (CCK-8, B34304, Bimake, USA). A549 (2 × 10^3/100 μL/well), PC-9 (3 × 10^3/100 μL/well) or PC-9/GR cells (3 × 10^3/100 μL/well) were plated into each well of 96-well plates (Costar, USA). […] Then, 10 μL of CCK-8 was added to each well, and cells were incubated for 1-4 h until the color of untreated controls turned to orange. The absorbance (A) was measured by a microplate reader (FLUOstar Omega-ACU, USA) at test and reference wavelengths of 450 nm. The percentage of growth was calculated as Cell viability (%) = [A (Compound +) - A (Blank) ] / [A (Compound -) - A (Blank) ] × 100%. Cell viability meant proliferation of cells. Each experiment was done at least in triplicate, and thrice independently.

A549 cells [2] = experiment: Colony formation assay, A549; format: cell-based, human; conditions: A549, as low as 0.3 μM
PC-9 cells = experiment: Cell apoptosis assay (Annexin V-FITC/PI flow cytometry), PC-9; format: cell-based, human; conditions: PC-9, 1.0 μM, 72 h
Procedure: (§1) Briefly, aliquots of 2 × 10^5 cells were seeded into 6-well plates and incubated for 24 h at 37 °C. […] After trypsinization and gently washing cells once with medium, the cells were washed twice with cold PBS. The precipitation was resuspended by 400 μL of 1 × binding buffer, and then resuspended cells were transferred into new 1.5 mL EP tubes. Then 3 μL of Annexin V-FITC and 5 μL of propidium iodide were added to the resuspended cells with further incubation at room temperature for 15 min in the dark. The analysis was done on Guava easyCyte (USA) and FlowJo 7.6 software.

PC-9/GR cells [3] = experiment: Cell apoptosis assay (Annexin V-FITC/PI flow cytometry), PC-9/GR; format: cell-based, human; conditions: 72 h
Procedure: as §1

c-Caspase-7 = experiment: Western blot of c-Caspase-7 in A549 and PC-9 cells; format: cell-based, human
Procedure: (§2) Cells or tumor tissue were lysed with RIPA buffer (Beyotime, Shanghai, China) supplemented with protease inhibitors (Beyotime, Shanghai, China) and phosphatase inhibitors (Bimake, USA). Lysates were denatured by heating for 5 min at 99 °C and loaded on 4-10% SDS-polyacrylamide gel electrophoresis. Then the proteins were transferred to polyvinylidene fluoride (PVDF) membranes (Millipore, USA). The membranes were blocked and probed with primary antibodies and secondary HPR-conjugated antibodies. At last the membranes were detected by chemiluminescence (Tanon, Shanghai, China). For co-immunoprecipitation experiments, 293T cells were plated and grew to about 80% confluency, then co-transfected with plasmids of HA-STAT3 and Flag-STAT3 using Lipofectamine 2000. After 24 h, cells were treated with different concentrations of W2014-S for following 24 h, and stimulated with IL-6 (100 ng/mL) for 1 h. Cells were lysed with IP RIPA buffer (Beyotime, Shanghai, China) supplemented with protease inhibitors (Beyotime, Shanghai, China) and phosphatase inhibitors (Bimake, America), and lysates were cultured with Anti-flag Affinity Gel (B23102, Bimake, USA) overnight at 4 ℃. The gel was washed by PBST for three times and added 1×loading buffer and denatured by heating for 5 min at 99 ℃. Then the proteins were resolved on SDS-PAGE, transferred to PVDF membranes and analysed with immunoblotting.

pY705-STAT3 = experiment: Western blot of pY705-STAT3 in A549 cells; format: cell-based, human
Procedure: as §2

AKT = experiment: Western blot of phosphorylated and total AKT in A549 and PC-9 cells; format: cell-based, human; conditions: A549 and PC-9, 0-3 μM, 24 h
Procedure: as §2

STAT3 = experiment: STAT3-dependent dual-luciferase reporter assay in 293T cells; format: cell-based, human; conditions: 293T, 0, 0.3, 1 μM, 24 h
Procedure: The STAT3-dependent luciferase reporter, pGL3-STAT3, contained seven copies of the STAT3-specific binding sequence ([…]) in the C-reactive protein gene promoter, and drove firefly luciferase expression. The new construct was confirmed by sequencing. For luciferase studies, 293T cells or A549 cells in 96-well plates were transiently co-transfected with the appropriate plasmids (10 ng TKRL as internal control vector for normalizing and 50 ng of pGL3-STAT3) using Lipofectamine 2000 (11668500, Invitrogen, Carlsbad, CA, USA) which was following the manufacturer's protocol. After 24 h, HEK-293T cells were treated with 0-1 μM W2014-S for 24 h, and stimulated with IL-6 (100 ng/mL, PeproTech) for 1 h or EGF (50 ng/mL, PeproTech) for 30 min. Subsequently, cytosolic extracts were prepared for dual-luciferase reporter assay.

[4] = system: PDX (TM00192/LG0567F, lung adenocarcinoma); experiment: Lung cancer PDX tumor xenografts in nude mice; format: in vivo
Procedure: To establish cell xenograft model, nude mice were injected subcutaneously with A549 cells (2×10^6) or PC-9/GR cells (4×10^6). For PDX model, the PDX sample was from The Jackson Laboratory. The model ID is TM00192/LG0567F. For this patient, the primary site is lung, the initial and diagnosis and final diagnosis is lung adenocarcinoma. The stage/grade is AJCC IB/grade 3. […] The sample type is surgical resection. […] The tumor sample were cut into approximately 1 mm^3, and the tissue was pushed under skin of mice by TROCHAR. When tumor volumes reached approximately 100 mm^3, mice were randomly distributed into groups of 7 mice. […] Tumor size was measured every two days by vernier caliper. The average tumor volume in each group was calculated based on the equation for a prolate spheroid (tumor volume = (short-diameter)^2 × large-diameter × π / 6 ) and expressed in mm^3.

A549 cells [5] = experiment: Transwell cell invasion assay, A549; conditions: A549, 1 μM
Procedure: Transwell invasion assays were performed as previously reported [37] using Transwell chamber (Costar, USA). […] Data from triplicates experiments were pooled and plotted as shown.

STAT3-STAT3 dimerization = STAT3-STAT3 dimerization (Homo sapiens, UniProt P40763); experiment: Co-immunoprecipitation of HA-STAT3 and Flag-STAT3 in A549 cells; format: cell-based; design: expressed in transfected cells; host or cells: A549; conditions: A549, 0, 0.3, 1 μM, 24 h
STAT3-STAT3 dimerization, sequence (P40763 whole entry): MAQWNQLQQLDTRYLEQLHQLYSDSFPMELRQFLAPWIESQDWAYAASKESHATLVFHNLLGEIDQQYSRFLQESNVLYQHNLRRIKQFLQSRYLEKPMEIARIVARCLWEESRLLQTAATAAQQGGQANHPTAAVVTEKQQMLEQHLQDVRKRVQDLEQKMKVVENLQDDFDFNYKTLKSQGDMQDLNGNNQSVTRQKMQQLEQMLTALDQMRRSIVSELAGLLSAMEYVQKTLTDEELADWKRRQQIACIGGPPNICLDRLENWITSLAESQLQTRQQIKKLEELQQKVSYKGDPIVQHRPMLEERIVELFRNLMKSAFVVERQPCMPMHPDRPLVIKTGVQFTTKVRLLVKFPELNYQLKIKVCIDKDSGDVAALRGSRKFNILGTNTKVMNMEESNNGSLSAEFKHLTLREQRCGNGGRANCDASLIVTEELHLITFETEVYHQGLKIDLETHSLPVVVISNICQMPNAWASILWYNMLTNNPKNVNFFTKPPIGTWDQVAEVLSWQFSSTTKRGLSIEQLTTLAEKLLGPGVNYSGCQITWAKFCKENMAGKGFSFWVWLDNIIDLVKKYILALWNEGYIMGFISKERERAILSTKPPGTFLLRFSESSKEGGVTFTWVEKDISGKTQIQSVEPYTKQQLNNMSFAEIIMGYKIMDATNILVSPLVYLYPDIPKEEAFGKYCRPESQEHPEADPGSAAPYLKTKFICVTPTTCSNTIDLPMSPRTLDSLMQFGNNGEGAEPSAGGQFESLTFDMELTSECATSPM
Procedure: as §2

[6] = gefitinib 2 μM and/or W2014-S 1 μM

C[C@H](Oc1ccc(-c2nc3nc(C4=CCN(C(=O)OC(C)(C)C)CC4)ccc3[nH]2)cc1)c1ccccc1 [W2014-S]
sensitization of acquired resistance (erlotinib) (PC-9/GR cells [1]; PC-9/GR, with erlotinib): sensitized acquired resistance
resensitization of PC-9/GR to gefitinib (PC-9/GR cells [1]; W2014-S 1 μM, gefitinib 2 μM): sufficient to resensitize PC-9/GR to gefitinib
colony formation (A549 cells [2]): significantly suppressed the colony formation
apoptosis (PC-9 cells): induced apoptosis
effect on gefitinib-induced apoptosis (PC-9/GR cells [3]; W2014-S 1 μM + gefitinib 2 μM): significantly enhanced gefitinib-induced apoptosis
Q1 (PC-9/GR cells [3]; [6]): 0.164%
Q2 (PC-9/GR cells [3]; [6]): 4.50%
Q3 (PC-9/GR cells [3]; [6]): 3.47%
Q4 (PC-9/GR cells [3]; [6]): 91.9%
cleavage of caspase-7 (c-Caspase-7): induced
phosphorylation level of STAT3 (pY705-STAT3; A549, 0, 1, 3 and 5 μM, 24 h): inhibit the phosphorylation level of STAT3 in a dose dependent manner, and more potent than W2014-R
phosphorylation of STAT3 at Y705, time course (pY705-STAT3; A549, 1 μM, 0-24 h): inhibited after 1 h treatment
phosphorylation of AKT and total AKT (AKT): not affected
STAT3-dependent luciferase reporter activity induced by IL-6 (STAT3): dose-dependently inhibited
level of pY705-STAT3 in tumor (western blot) ([4]; PDX): significantly suppressed the level of pY705-STAT3
body weights and signs of toxicity during treatment ([4]; PDX mice, 5 or 15 mg/kg daily, 21 d): no significant changes in body weights, or obvious signs of toxicity
growth of xenografts ([4]; PDX, i.p. 5 or 15 mg/kg daily, 21 d): significantly inhibited growth
expression of Ki-67 in tumor (IHC) ([4]; PDX, vs vehicle): significantly reduced
cell invasion (A549 cells [5]): suppressed
dimerization of HA-STAT3 and Flag-STAT3 (STAT3-STAT3 dimerization): inhibited by W2014-S in a dosage-dependent manner
